Structures are written as SMILES.

The subject of this assay is BMDMs. Description: UNC2025 with PS:PLG particle treatment of LPS-inflamed primary macrophages. It counts as cell-based, mice. Particulars: LPS 1 ng/mL, PS:PLG 1:10 cell to particle ratio. Here is the method: FIG. 10 depicts TNF-α secreted by BMDMs pre-treated with UNC2025 followed by a co-treatment with LPS (1 ng/mL) and PS:PLG (1:10 cell to particle ratio).
FIG. 11 depicts IL-6 secreted by BMDMs pre-treated with UNC2025 followed by a co-treatment with LPS (1 ng/mL) and PS:PLG (1:10 cell to particle ratio).
FIG. 12 depicts IL-10 secreted by BMDMs pre-treated with UNC2025 followed by a co-treatment with LPS (1 ng/mL) and PS:PLG (1:10 cell to particle ratio).
This effect is not limited to UNC2025 but applicable to a broad range of bioactive molecules including small molecules, nucleic acids, peptides, lipids, glycans, etcetera.

`CCCCNc1ncc2c(-c3ccc(CN4CCN(C)CC4)cc3)cn([C@H]3CC[C@H](O)CC3)c2n1` [UNC2025]: the “anti-inflammatory response of PS:PLG particle treatment with co-delivery of small molecule (TNF-α, IL-6, IL-10)” value is reported as “synergistically enhanced”.

(Values after patent publication US20230301925A1, “PHOSPHOLIPID PRESENTING PARTICLES FOR CELL TARGETING IN THERAPY AND DIAGNOSTICS” (UNIVERSITY OF SOUTH CAROLINA, priority 2022, published 2023).)
